Patent US12091426B2, “Bifunctional degraders of hematopoietic progenitor kinase and therapeutic uses thereof” (Nurix Therapeutics, Inc., priority 2021, dated 2024)

Target: T1, HPK1 (Homo sapiens, UniProt Q92918)
T1 construct: A HiBiT tag was introduced by CRISPR on the N terminus of HPK1 in Jurkat cells; host or cells: Jurkat cells (ATCC TIB-152), monoclonal line with CRISPR knock-in of HiBiT at the endogenous HPK1 locus
Assay: HPK1 Cellular HiBit Degradation Assay
Type: cell-based
Details: HiBiT HPK1 Jurkat cells, 24 hrs; for DC50: concentration at which 50% of HPK1 was remaining, read-out: DC50 Category; for Dmax: Jurkat, read-out: Dmax Category
How it was run: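 HPK1 levels are read by HiBiT luminescence after 24 h exposure of HiBiT-knock-in Jurkat cells to compound at 10 uM–0.1 nM final (11 points). Relative to DMSO (100%), DC50 is the concentration leaving 50% HPK1 from a variable-slope fit, and Dmax is 100 minus minimum remaining. Viability checked in-plate.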

[1] = maximum degradation vs DMSO vehicle control

T1 sequence (Q92918 whole entry): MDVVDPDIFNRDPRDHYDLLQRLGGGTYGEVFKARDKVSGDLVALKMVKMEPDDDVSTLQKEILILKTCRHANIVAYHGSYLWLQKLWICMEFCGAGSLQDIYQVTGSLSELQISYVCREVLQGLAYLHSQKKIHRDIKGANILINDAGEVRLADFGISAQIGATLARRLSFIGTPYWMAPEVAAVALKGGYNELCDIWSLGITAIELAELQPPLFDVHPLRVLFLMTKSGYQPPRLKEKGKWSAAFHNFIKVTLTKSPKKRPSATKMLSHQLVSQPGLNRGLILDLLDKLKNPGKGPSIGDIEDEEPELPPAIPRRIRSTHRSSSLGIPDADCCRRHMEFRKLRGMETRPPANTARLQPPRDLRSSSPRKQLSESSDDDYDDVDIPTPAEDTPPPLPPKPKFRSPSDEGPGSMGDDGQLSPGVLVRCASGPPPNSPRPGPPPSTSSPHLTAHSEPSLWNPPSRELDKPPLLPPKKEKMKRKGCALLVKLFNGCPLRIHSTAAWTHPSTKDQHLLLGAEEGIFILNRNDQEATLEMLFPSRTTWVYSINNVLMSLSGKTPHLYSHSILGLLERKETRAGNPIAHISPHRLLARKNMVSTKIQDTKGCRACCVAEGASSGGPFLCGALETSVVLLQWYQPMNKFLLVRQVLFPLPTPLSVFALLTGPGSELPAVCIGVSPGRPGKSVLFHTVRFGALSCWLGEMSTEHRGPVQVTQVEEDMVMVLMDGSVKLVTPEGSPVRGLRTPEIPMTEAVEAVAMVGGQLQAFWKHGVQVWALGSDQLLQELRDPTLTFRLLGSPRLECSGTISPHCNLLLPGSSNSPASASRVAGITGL

Row | DC50 [nM] | Dmax [1] [%] | Dmax Category [1] | Compound
1 | < 100 | > 85 |  | CC(C)n1cnc2cc(-c3ccc4c(c3)N([C@H]3C[C@@H](N5CCCCC5)C3)C(=O)C43CCN(C(=O)[C@@H]4CCN(C(=O)[C@H]5CC[C@H](N(C)c6ccc(C7CCC(=O)NC7=O)cn6)CC5)C4)CC3)nc(NC3CC3)c21 (mixture of isomers) [Example 126, (3RS)-3-(6-{methyl[(1R,4R)-4-[(3R)-3-({6-[4-(cyclopropylamino)-3-(propan-2-yl)-3H-imidazo[4,5-c]pyridin-6-yl]-2-oxo-1-[(1S,3S)-3-(piperidin-1-yl)cyclobutyl]-1,2-dihydrospiro[indole-3,4′-piperidin]-1′-yl}carbonyl)pyrrolidine-1-carbonyl]cyclohexyl]amino}pyridin-3-yl)piperidine-2,6-dione]
2 | < 100 | 70 to 85 |  | CC(C)n1cnc2cc(-c3ccc4c(c3)N([C@H]3C[C@@H](N5CCCCC5)C3)C(=O)C43CCN(C(=O)C4(C)CCN(C(=O)C5CCN(c6ccc(C7CCC(=O)NC7=O)c(F)c6)CC5)CC4)CC3)nc(NC3CC3)c21 (mixture of isomers) [Example 210, (3RS)-3-(4-{4-[4-({6-[4-(cyclopropylamino)-3-(propan-2-yl)-3H-imidazo[4,5-c]pyridin-6-yl]-2-oxo-1-[(1S,3S)-3-(piperidin-1-yl)cyclobutyl]-1,2-dihydrospiro[indole-3,4′-piperidin]-1′-yl}carbonyl)-4-methylpiperidine-1-carbonyl]piperidin-1-yl}-2-Fluorophenyl)piperidine-2,6-dione]
3 | 500 to 1000 | 50 to 70 |  | CC(C)n1cnc2cc(-c3ccc4c(c3)N([C@H]3C[C@@H](N5CCCCC5)C3)C(=O)C43CCN(C(=O)C4CCN(C(=O)[C@H]5CC[C@H](N(C)c6cccc7c6C(=O)N(C6CCC(=O)NC6=O)C7=O)CC5)CC4)CC3)nc(NC3CC3)c21 (mixture of isomers) [Example 133, 2-[(3RS)-2,6-dioxopiperidin-3-yl]-4-{methyl[(1R,4R)-4-[4-({6-[4-(cyclopropylamino)-3-(propan-2-yl)-3H-imidazo[4,5-c]pyridin-6-yl]-2-oxo-1-[(1S,3S)-3-(piperidin-1-yl)cyclobutyl]-1,2-dihydrospiro[indole-3,4′-piperidin]-1′-yl}carbonyl)piperidine-1-carbonyl]cyclohexyl]amino}-2,3-dihydro-1H-isoindole-1,3-dione]
4 | 100 to 500 | 70 to 85 |  | CC(C)n1cnc2cc(-c3ccc4c(c3)N([C@H]3C[C@@H](N5CCCCC5)C3)C(=O)C43CCN(C(=O)c4ccc(C5CCN(C(=O)C6CCN(c7ccc(C8CCC(=O)NC8=O)cn7)CC6)CC5)cc4)CC3)nc(NC3CC3)c21 (mixture of isomers) [Example 302, (3RS)-3-[6-(4-{4-[4-({6-[4-(cyclopropylamino)-3-(propan-2-yl)-3H-imidazo[4,5-c]pyridin-6-yl]-2-oxo-1-[(1S,3S)-3-(piperidin-1-yl)cyclobutyl]-1,2-dihydrospiro[indole-3,4′-piperidin]-1′-yl}carbonyl)phenyl]piperidine-1-carbonyl}piperidin-1-yl)pyridin-3-yl]piperidine-2,6-dione]

The next lines start with the compound.

Row | Compound | DC50 [nM] | Dmax [1] [%] | Dmax Category [1]
5 | CC(C)n1cnc2cc(-c3ccc4c(c3)N([C@H]3C[C@@H](N5CCCCC5)C3)C(=O)C43CCN(C(=O)C4(C)CCN(C(=O)CN5CCC(c6ccc(C7CCC(=O)NC7=O)cn6)CC5)CC4)CC3)nc(NC3CC3)c21 (mixture of isomers) [Example 224, (3RS)-3-[6-(1-{2-[4-({6-[4-(cyclopropylamino)-3-(propan-2-yl)-3H-imidazo[4,5-c]pyridin-6-yl]-2-oxo-1-[(1S,3S)-3-(piperidin-1-yl)cyclobutyl]-1,2-dihydrospiro[indole-3,4′-piperidin]-1′-yl}carbonyl)-4-methylpiperidin-1-yl]-2-oxoethyl}piperidin-4-yl)pyridin-3-yl]piperidine-2,6-dione] | 100 to 500 | 70 to 85 | 
6 | CC(C)n1cnc2cc(-c3ccc4c(c3)N([C@H]3C[C@@H](N5CCCCC5)C3)C(=O)C43CCN(C(=O)[C@]4(C)CCN(C(=O)C5CCN(c6ccc(C7CCC(=O)NC7=O)c(F)c6)CC5)C4)CC3)nc(NC3CC3)c21 (mixture of isomers) [Example 185, (3RS)-3-(4-{4-[(3R)-3-({6-[4-(cyclopropylamino)-3-(propan-2-yl)-3H-imidazo[4,5-c]pyridin-6-yl]-2-oxo-1-[(1S,3S)-3-(piperidin-1-yl)cyclobutyl]-1,2-dihydrospiro[indole-3,4′-piperidin]-1′-yl}carbonyl)-3-methylpyrrolidine-1-carbonyl]piperidin-1-yl}-2-fluorophenyl)piperidine-2,6-dione] | 100 to 500 | 70 to 85 | 
7 | CC(C)n1cnc2cc(-c3ccc4c(c3)N([C@H]3C[C@@H](N5CCCCC5)C3)C(=O)C43CCN(C(=O)c4ccc(C(=O)NC5CCN(c6ccc7c(c6)C(=O)N(C6CCC(=O)NC6=O)C7=O)CC5)cc4)CC3)nc(NC3CC3)c21 (mixture of isomers) [Example 44] | 500 to 1000 |  | B (B: >70%-<85%)
8 | CC(C)n1cnc2cc(-c3ccc4c(c3)N([C@H]3C[C@@H](N5CCCCC5)C3)C(=O)C43CCN(C(=O)C4(C)CCN(C(=O)C5CCN(c6ccc(N7CCC(=O)NC7=O)cn6)CC5)CC4)CC3)nc(Nc3ccccc3F)c21 [Example 116, 1-[6-(4-{4-[(6-{4-[(2-fluorophenyl)amino]-3-(propan-2-yl)-3H-imidazo[4,5-c]pyridin-6-yl}-2-oxo-1-[(1S,3S)-3-(piperidin-1-yl)cyclobutyl]-1,2-dihydrospiro[indole-3,4′-piperidin]-1′-yl)carbonyl]-4-methylpiperidine-1-carbonyl}piperidin-1-yl)pyridin-3-yl]-1,3-diazinane-2,4-dione] | < 100 | > 85 | 
9 | CC(C)n1cnc2cc(-c3ccc4c(c3)N([C@H]3C[C@@H](N5CCCCC5)C3)C(=O)C43CCN(C(=O)C4CCN(C(=O)[C@H]5CC[C@H](C(=O)N6CCc7cc(N8CCC(=O)NC8=O)ccc7C6)CC5)CC4)CC3)nc(Nc3ccccc3F)c21 [Example 49, 1-{2-[(1R,4R)-4-{4-[(6-{4-[(2-fluorophenyl)amino]-3-(propan-2-yl)-3H-imidazo[4,5-c]pyridin-6-yl}-2-oxo-1-[(1S,3S)-3-(piperidin-1-yl)cyclobutyl]-1,2-dihydrospiro[indole-3,4′-piperidin]-1′-yl)carbonyl]piperidine-1-carbonyl}cyclohexanecarbonyl]-1,2,3,4-tetrahydroisoquinolin-6-yl}-1,3-diazinane-2,4-dione] | 100 to 500 | 50 to 70 | 
10 | CC(C)n1cnc2cc(-c3ccc4c(c3)N([C@H]3C[C@@H](N5CCCCC5)C3)C(=O)C43CCN(C(=O)[C@@H]4C[C@H]5CC[C@@H](C4)N5C(=O)C4CCN(c5ccc(C6CCC(=O)NC6=O)cc5)CC4)CC3)nc(NC3CC3)c21 (mixture of isomers) [Example 262, (3RS)-3-(4-{4-[(1R,3R,5S)-3-({6-[4-(cyclopropylamino)-3-(propan-2-yl)-3H-imidazo[4,5-c]pyridin-6-yl]-2-oxo-1-[(1S,3S)-3-(piperidin-1-yl)cyclobutyl]-1,2-dihydrospiro[indole-3,4′-piperidin]-1′-yl}carbonyl)-8-azabicyclo[3.2.1]Octane-8-carbonyl]piperidin-1-yl}phenyl)piperidine-2,6-dione] | < 100 | 70 to 85 | 
